In experiment [1] the target is T1, RXFP2 (Homo sapiens, UniProt Q8WXD0). As to the kind of experiment: RXFP2 competition binding assay with europium-labelled INSL3. Set-up: expressed in transfected cells; host or cells: HEK-293T. The conditions noted are these: competition with 0.3 nM europium-labelled INSL3, unlabelled peptide 0.01 nM–1 μM; HEK-293T cells stably transfected with RXFP2; mean ± SEM; n in parentheses in Table 1 (6 for human INSL3, 3 for the analogues); read-out: Receptor binding pKi (converted).

Experiment [2] has as its target T1, RXFP2. Set-up: expressed in transfected cells. The conditions noted are these: data for entry 2 taken from the reference; n = 3; ref [32]; cited from earlier work. The text has this:
Table 1 Receptor binding affinities (pKi) of INSL3 and analogues. Data for entry 2 taken from reference. | column: Receptor binding pKi (n=) || Moreover, to date, there have been no reports of a chemical synthesis of a bis-lactam cross-linked heterodimeric peptide. Consequently, in this study, we undertook an examination of the feasibility of a total step-wise synthesis of, first, a monolactam A24-B22 analogue and, subsequently, a bis-lactam A11-B10/A24-B22 analogue of INSL3. Our novel strategy involved the continuous assembly of both the A- and B-chains, plus the lactam bridges on the same solid support, that is, without using preformed peptide fragments. In order to simplify assembly, the C-terminus of the A-chain was truncated at p ... || Both the ΔA25/26 human INSL3 monolactam A24-B22 and bis-lactam A11-B10/A24-B22 analogues were tested in the RXFP2 competition binding assay (Table 1).

Numbered stars: 1 amine (or outer) side, 2 acyl side, 3 side chain; on linkers, the order of the positions; unused ones are H or OH. Bridge positions count the residues as written; N and C are the ends. Square brackets hold non-standard residues; d marks the D form. Ends that are not written are not given here. I, II: the chains in the order shown. βAsp = O=C(O)[C@H](CC(=O)[*:2])N[*:1]; Dap = NC[C@H](N)C(=O)O

T1 sequence (Q8WXD0 whole entry): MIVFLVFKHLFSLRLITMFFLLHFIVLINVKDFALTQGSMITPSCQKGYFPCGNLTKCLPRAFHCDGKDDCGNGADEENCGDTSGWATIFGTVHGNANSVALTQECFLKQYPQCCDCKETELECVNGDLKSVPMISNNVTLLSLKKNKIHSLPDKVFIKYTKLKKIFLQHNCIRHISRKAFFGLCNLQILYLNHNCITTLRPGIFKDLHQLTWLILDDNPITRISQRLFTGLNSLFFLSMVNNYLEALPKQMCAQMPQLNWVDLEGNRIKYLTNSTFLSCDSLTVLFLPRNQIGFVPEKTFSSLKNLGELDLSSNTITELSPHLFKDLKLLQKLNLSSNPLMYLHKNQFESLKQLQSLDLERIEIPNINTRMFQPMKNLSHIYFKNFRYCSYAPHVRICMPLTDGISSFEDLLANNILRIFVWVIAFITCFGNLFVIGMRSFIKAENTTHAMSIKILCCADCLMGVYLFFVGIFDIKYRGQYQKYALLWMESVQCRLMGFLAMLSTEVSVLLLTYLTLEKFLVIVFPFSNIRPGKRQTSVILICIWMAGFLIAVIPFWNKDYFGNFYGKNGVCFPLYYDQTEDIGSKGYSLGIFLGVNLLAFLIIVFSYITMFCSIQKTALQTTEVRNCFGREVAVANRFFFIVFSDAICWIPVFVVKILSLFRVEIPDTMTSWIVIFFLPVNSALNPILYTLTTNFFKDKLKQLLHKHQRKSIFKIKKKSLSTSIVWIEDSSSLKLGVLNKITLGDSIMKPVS

Take “I: PTPEMREKLCGHHFVRALVRVCGGPRWSTEA / II: AAATNPARYCCLSGCTQQDLLTLCPY (disulfide I:10-II:11, I:22-II:24, II:10-II:15) [Human INSL3]”: in experiment [1], the Ki is 0.575 nM. Same read-out and setting: the result for “I: PTPEMREKLCGHHFVRALVRV[Dap]GGPRWSTEA / II: AAATNPARYCCLSGCTQQDLLTL[βAsp] (disulfide I:10-II:11, II:10-II:15; amide I:22-II:C) [ΔA25/26 human INSL3 mono-lactam A24-B22]” reads 4.47 nM; that for “I: PTPEMREKL[Dap]GHHFVRALVRV[Dap]GGPRWSTEA / II: AAATNPARYCDLSGCTQQDLLTL[βAsp] (amide I:10-II:11, I:22-II:C; disulfide II:10-II:15)”, 12 nM. Consider “ΔA25/26 human INSL3: INSL3 analogue, C-terminus of the A-chain truncated at position 24, omitting Pro A25 and Tyr A26 (chain 1 AAATNPARYCCLSGCTQQDLLTLC; chain 2 PTPEMREKLCGHHFVRALVRVCGGPRWSTEA; Disulfides A10-A15 (intra-A), A11-B10 and A24-B22 (interchain); A-chain is A1-A24 (Pro A25 and Tyr A26 omitted); B-chain is 31 residues ending in Ala; Ch)”, for which the “Receptor binding pKi” value in experiment [2] was 8.59 ± 0.06 (3).

The values above are taken from PMC3830869, “Total Chemical Synthesis of a Heterodimeric Interchain Bis-Lactam-Linked Peptide: Application to an Analogue of Human Insulin-Like Peptide 3” (International Journal of Peptides, 2013).
